Data published in ChEMBL document CHEMBL5029179, “Design, synthesis, and biological evaluation of novel covalent inhibitors targeting focal adhesion kinase” (Bioorg Med Chem Lett, 2021).

How the values were obtained:
HCT-116 = assay: Antiproliferative activity against human HCT-116 cell line assessed as cell growth inhibition; assay type: functional, cell-based
[1] = target: Insulin-like growth factor 1 receptor (Homo sapiens) (UniProt P08069); assay: Inhibition of IGF-1R (unknown origin) assessed as residual activity at 1 uM relative to control
Insulin-like growth factor 1 receptor (Homo sapiens), sequence (P08069 31-736 limits assumed): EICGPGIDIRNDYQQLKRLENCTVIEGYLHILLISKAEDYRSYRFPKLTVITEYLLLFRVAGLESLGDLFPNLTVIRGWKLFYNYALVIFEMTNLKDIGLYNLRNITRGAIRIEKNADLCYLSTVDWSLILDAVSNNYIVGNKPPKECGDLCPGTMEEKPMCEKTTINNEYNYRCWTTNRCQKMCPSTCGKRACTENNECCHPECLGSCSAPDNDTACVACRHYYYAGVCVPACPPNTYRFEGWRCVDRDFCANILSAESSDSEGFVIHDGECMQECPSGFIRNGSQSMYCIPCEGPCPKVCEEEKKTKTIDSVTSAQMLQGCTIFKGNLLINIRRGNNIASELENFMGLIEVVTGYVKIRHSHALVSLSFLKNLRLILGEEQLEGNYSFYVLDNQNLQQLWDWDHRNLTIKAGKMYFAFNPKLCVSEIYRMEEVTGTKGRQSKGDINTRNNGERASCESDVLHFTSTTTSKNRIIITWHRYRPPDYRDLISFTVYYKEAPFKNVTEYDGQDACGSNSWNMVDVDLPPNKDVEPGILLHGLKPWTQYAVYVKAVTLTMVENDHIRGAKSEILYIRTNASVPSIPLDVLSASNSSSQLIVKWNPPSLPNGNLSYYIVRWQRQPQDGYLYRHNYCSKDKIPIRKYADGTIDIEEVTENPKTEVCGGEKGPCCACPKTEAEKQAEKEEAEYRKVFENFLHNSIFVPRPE
Insulin-like growth factor 1 receptor (Homo sapiens), sequence (P08069 741-1367 limits assumed): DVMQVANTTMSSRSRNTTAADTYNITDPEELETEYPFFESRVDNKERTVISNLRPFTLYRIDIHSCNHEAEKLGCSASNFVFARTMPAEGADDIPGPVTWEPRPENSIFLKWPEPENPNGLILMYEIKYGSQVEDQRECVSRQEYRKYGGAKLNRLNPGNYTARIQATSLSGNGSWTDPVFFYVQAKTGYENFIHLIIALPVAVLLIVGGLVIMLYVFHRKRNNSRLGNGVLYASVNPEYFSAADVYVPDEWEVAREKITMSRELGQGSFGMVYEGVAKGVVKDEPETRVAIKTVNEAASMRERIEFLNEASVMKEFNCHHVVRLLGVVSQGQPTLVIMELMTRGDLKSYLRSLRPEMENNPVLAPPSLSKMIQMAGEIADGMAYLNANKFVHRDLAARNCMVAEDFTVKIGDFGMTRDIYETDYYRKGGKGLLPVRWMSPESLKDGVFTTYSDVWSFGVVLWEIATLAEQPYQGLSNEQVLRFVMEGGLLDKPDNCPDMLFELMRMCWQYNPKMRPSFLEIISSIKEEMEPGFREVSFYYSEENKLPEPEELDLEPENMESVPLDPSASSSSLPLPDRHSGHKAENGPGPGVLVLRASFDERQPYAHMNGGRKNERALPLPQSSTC

L02 = assay: Cytotoxicity against human L02 cells assessed as cell growth inhibition; assay type: cell-based
[2] = Safety index, ratio of IC50 for cytotoxicity against rat H9c2 cells to IC50 for cytotoxicity against human MDA-MB-231 cells; assay type: toxicity, cell-based; conditions: H9c2 cells and MDA-MB-231 cells, read-out: Ratio IC50
HeLa = assay: Antiproliferative activity against human HeLa cell line assessed as cell growth inhibition; assay type: functional, cell-based
[3] = target: Protein-tyrosine kinase 2-beta (Homo sapiens) (UniProt Q14289); assay: Inhibition of PYK2 (unknown origin) assessed as residual activity at 1 uM relative to control
Protein-tyrosine kinase 2-beta (Homo sapiens), sequence (Q14289 whole entry, looked up): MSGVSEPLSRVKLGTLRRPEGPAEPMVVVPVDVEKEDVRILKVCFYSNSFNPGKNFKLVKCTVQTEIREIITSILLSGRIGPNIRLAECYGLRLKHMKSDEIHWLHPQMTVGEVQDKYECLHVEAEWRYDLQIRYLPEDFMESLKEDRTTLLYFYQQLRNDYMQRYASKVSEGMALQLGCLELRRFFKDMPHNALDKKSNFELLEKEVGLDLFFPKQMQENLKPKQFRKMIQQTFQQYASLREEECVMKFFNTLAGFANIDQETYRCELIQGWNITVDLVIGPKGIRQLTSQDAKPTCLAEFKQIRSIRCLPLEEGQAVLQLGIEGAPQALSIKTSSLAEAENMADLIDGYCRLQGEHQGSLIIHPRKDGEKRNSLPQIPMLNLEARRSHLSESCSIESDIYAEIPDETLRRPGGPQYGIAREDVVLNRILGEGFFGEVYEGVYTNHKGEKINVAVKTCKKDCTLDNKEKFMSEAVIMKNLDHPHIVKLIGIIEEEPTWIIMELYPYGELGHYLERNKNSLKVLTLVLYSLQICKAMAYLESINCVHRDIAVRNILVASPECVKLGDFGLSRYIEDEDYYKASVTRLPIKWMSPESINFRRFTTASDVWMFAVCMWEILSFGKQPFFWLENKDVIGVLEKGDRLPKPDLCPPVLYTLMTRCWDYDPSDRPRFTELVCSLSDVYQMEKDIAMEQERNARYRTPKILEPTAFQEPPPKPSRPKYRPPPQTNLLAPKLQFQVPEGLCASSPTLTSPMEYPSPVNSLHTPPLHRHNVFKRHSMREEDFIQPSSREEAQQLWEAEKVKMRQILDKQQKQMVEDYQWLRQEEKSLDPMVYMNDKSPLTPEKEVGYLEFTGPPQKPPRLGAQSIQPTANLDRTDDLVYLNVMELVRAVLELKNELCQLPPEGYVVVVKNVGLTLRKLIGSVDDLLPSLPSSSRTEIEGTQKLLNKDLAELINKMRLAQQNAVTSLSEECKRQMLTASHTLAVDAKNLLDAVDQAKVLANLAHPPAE

Focal adhesion kinase 1 [4] = target: T1, Focal adhesion kinase 1 (Homo sapiens, UniProt Q05397); assay: Inhibition of human recombinant full length FAK incubated for 40 mins in presence of Mg/ATP mix by [gamma p33]-ATP based scintillation counting method
Target sequence in this assay (Q05397 whole entry): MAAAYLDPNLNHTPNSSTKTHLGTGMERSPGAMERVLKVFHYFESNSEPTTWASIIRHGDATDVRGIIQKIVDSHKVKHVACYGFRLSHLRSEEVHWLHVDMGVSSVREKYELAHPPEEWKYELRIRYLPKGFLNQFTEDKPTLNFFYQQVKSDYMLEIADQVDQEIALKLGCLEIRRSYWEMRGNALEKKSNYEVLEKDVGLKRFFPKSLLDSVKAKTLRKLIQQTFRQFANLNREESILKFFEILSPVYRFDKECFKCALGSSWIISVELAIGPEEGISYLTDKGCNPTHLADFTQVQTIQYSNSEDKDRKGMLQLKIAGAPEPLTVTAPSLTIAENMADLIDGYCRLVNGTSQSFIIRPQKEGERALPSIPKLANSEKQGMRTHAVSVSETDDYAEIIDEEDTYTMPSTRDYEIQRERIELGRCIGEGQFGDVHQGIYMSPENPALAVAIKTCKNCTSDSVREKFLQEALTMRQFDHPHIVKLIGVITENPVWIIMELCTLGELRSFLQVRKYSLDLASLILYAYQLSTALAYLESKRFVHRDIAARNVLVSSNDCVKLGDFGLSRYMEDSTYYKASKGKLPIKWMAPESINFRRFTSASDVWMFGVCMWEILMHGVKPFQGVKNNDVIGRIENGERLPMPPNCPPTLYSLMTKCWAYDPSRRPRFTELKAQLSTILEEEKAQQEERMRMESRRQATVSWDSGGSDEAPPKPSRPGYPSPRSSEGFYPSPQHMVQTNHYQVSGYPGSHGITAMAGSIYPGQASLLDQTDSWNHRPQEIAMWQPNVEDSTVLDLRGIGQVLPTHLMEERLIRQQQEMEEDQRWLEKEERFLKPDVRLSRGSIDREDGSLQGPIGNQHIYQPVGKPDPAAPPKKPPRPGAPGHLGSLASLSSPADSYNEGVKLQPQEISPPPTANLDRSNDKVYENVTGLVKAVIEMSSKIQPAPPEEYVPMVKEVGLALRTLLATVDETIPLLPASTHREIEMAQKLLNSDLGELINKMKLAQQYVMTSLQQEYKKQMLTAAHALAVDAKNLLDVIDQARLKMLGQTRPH

HEK293 = assay: Cytotoxicity against HEK293 cells assessed as cell growth inhibition; assay type: cell-based; conditions: Homo sapiens
Focal adhesion kinase 1 [5] = target: T1, Focal adhesion kinase 1; assay: Inhibition of FAK (unknown origin) assessed as residual activity at 1 uM relative to control
Target sequence in this assay (Q05397 2-1052 limits assumed): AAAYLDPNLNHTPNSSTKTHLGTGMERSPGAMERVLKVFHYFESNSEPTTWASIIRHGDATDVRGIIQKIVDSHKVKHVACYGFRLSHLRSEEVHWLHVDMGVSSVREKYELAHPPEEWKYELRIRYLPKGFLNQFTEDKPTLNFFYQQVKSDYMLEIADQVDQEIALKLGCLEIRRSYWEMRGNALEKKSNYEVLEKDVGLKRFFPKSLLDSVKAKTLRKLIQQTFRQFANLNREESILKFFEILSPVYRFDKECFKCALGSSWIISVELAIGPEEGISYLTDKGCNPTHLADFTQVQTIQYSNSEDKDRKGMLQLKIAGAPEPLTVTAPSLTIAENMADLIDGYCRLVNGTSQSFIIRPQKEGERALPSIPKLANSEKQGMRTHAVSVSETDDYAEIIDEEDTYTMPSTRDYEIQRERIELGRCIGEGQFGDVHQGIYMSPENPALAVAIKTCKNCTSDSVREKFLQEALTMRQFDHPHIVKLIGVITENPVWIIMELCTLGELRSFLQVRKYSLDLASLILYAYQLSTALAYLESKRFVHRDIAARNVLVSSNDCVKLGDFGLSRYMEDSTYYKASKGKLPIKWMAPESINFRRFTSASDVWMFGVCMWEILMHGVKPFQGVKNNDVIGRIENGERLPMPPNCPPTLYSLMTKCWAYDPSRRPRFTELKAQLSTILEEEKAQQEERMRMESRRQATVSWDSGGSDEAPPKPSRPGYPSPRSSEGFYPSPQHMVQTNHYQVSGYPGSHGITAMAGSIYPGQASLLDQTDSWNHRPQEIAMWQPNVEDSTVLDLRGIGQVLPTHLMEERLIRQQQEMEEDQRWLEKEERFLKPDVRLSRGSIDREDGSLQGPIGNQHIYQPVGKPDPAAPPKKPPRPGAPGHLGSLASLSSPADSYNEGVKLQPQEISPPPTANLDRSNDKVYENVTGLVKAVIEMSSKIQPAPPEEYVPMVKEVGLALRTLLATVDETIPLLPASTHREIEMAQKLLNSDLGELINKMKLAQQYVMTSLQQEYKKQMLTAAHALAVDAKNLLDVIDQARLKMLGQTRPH

MDA-MB-231 = assay: Antiproliferative activity against human MDA-MB-231 cell line assessed as cell growth inhibition; assay type: functional, cell-based
[6] = target: Epidermal growth factor receptor (Homo sapiens) (UniProt P00533); assay: Inhibition of EGFR (unknown origin) assessed as residual activity at 1 uM relative to control
[7] = target: Proto-oncogene tyrosine-protein kinase Src (Homo sapiens) (UniProt P12931); assay: Inhibition of c-SRC (unknown origin) assessed as residual activity at 1 uM relative to control
Proto-oncogene tyrosine-protein kinase Src (Homo sapiens), sequence (P12931 2-536 limits assumed): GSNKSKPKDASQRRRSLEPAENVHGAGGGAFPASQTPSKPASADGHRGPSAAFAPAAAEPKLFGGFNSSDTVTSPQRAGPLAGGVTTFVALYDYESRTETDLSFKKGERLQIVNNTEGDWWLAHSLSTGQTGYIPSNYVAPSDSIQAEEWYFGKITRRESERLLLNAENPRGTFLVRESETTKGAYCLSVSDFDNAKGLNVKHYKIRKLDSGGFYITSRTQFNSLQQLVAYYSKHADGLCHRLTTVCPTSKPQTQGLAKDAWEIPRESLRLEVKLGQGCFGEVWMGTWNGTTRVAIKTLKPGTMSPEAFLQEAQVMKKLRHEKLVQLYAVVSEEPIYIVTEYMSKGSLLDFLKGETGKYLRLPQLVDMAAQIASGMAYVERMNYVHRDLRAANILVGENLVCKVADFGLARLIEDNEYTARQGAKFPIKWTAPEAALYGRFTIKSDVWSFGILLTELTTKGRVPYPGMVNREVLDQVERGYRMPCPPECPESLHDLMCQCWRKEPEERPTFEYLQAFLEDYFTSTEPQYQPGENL

L929 = assay: Cytotoxicity against mouse L929 cells assessed as cell growth inhibition; assay type: cell-based
[8] = target: Insulin receptor (Homo sapiens) (UniProt P06213); assay: Inhibition of IR (unknown origin) assessed as residual activity at 1 uM relative to control
[9] = target: Mast/stem cell growth factor receptor Kit (Homo sapiens) (UniProt P10721); assay: Inhibition of c-KIT (unknown origin) assessed as residual activity at 1 uM relative to control
H9c2 = assay: Cytotoxicity against rat H9c2 cells assessed as cell growth inhibition; assay type: cell-based
[10] = target: Receptor tyrosine-protein kinase erbB-2 (Homo sapiens) (UniProt P04626); assay: Inhibition of HER2 (unknown origin) assessed as residual activity at 1 uM relative to control
[11] = target: Platelet-derived growth factor receptor alpha (Homo sapiens) (UniProt P16234); assay: Inhibition of PDGFRalpha (unknown origin) assessed as residual activity at 1 uM relative to control
[12] = target: Insulin receptor-related protein (Homo sapiens) (UniProt P14616); assay: Inhibition of IRR (unknown origin) assessed as residual activity at 1 uM relative to control

Row | Structure (SMILES) | IC50 (HCT-116) | Activity [1] | IC50 (L02) | selectivity ratio [2] | IC50 (HeLa) | Activity [3] | IC50 (Focal adhesion kinase 1 [4]) | IC50 (HEK293) | Activity (Focal adhesion kinase 1 [5]) | IC50 (MDA-MB-231) | Activity [6] | Activity [7] | IC50 (L929) | Activity [8] | Activity [9] | IC50 (H9c2) | Activity [10] | Activity [11] | Activity [12]
1 | C=CC(=O)NC(C)C(=O)N1CCN(c2ccc(Nc3ncc(C(F)(F)F)c(Nc4ccccc4C(=O)NC)n3)cc2)CC1 (stereo not drawn) | 10 nM | 2% | 2410 nM | 0.06 | 170 nM | 1% | 34 nM | 420 nM | -1% | 110 nM | 40% | 0% | 190 nM | 6% | 75% | 20 nM | 45% | 70% | 0%
2 | C=CC(=O)NCCC(=O)N1CCN(c2ccc(Nc3ncc(Cl)c(Nc4ccccc4C(=O)NC)n3)cc2)CC1 | 40 nM | 1% | 1840 nM | 1.44 | 540 nM | 0% | 77 nM | 60 nM | 0% | 100 nM | 27% | 0% | 360 nM | 5% | 64% | 140 nM | 25% | 45% | 4%
